Results on 45 molecules are retold here after patent US8946238B2, “Pyrazolo[1,5-A]pyrimidines as antiviral agents” (Gilead Sciences, Inc., priority 2011, dated 2015).

The structures appear in SMILES notation.

The test system of the experiment is RSV strain A2. Description: RSV antiviral cytoprotection assay in Hep2 cells (RSV-induced cytopathic effect, Cell TiterGlo). It counts as cell-based, Respiratory Syncytial Virus (RSV). The conditions noted are these: human respiratory syncytial virus, HEp-2, 0.5 μM compound; RSV A2-infected Hep2 cells; % inhibition calculated from 4-parameter dose response curve, normalized to 0% and 100%; read-out: Percent inhibition at 0.5 μM. As for the experimental part:
Antiviral activity against RSV was determined using an in vitro cytoprotection assay in Hep2 cells. […] The method used was similar to methods previously described in published literature (Chapman et al., Antimicrob Agents Chemother. 2007, 51(9):3346-53.)
Hep2 cells were obtained from ATCC (Manassas, VI) and maintained in MEM media supplemented with 10% fetal bovine serum and penicillin/streptomycin. Cells were passaged twice a week and kept at subconfluent stage. Commercial stock of RSV strain A2 (Advanced Biotechnologies, Columbia, Md.) was titered before compound testing to determine the appropriate dilution of the virus stock that generated desirable cytopathic effect in Hep2 cells.
For antiviral tests, Hep2 cells were seeded into 96-well plates 24 hours before the assay at a density of 3,000 cells/well. On a separate 96 well plate, compounds to be tested were serially diluted in cell culture media. Eight concentrations in 3-fold serial dilution increments were prepared for each tested compound and 100 uL/well of each dilution was transferred in duplicate onto plates with seeded Hep2 cells. Subsequently, appropriate dilution of virus stock previously determined by titration was prepared in cell culture media and 100 uL/well was added to test plates containing cells and serially diluted compounds. Each plate included three wells of infected untreated cells and three wells of uninfected cells that served as 0% and 100% virus inhibition control, respectively. Following the infection with RSV, testing plates were incubated for 4 days in a tissue culture incubator. After the incubation, RSV-induced cytopathic effect was determined using a Cell TiterGlo reagent (Promega, Madison, Wis.) followed by a luminescence read-out. The percentage inhibition was calculated for each tested concentration relative to the 0% and 100% inhibition controls and the EC50 value for each compound was determined by non-linear regression as a concentration inhibiting the RSV-induced cytopathic effect by 50%. Ribavirin (purchased from Sigma, St. Louis, Mo.) was used as a positive control for antiviral activity.
Compounds were also tested for antiviral activity against RSV in Hep2 cells using a 384 well format. Compounds were diluted in DMSO using a 10-step serial dilution in 3-fold increments via automation in 4 adjacent replicates each. Eight compounds were tested per dilution plate. 0.4 uL of diluted compounds were then stamped via Biomek into 384-well plates (Nunc 142761 or 164730 w/lid 264616) containing 20 μL of media (Mediatech Inc. MEM supplemented with Glutamine, 10% FBS and Pen/Strep). DMSO and a suitable positive control compound, such as 80 μM GS-329467 or 10 μM 427346 was used for the 100% and 0% cell killing controls, respectively.
Hep2 cells (1.0×10^5 cells/ml) were prepared as above in batch to at least 40 mls excess of the number of sample plates (8 mls cell mix per plate) and infected with vendor supplied (ABI) RSV strain A2 to arrive at an MOI of 1:1000 (virus:cell #) or 1:3000 (vol virus: cell vol). Immediately after addition of virus, the RSV infected Hep2 cell suspension was added to each stamped 384-well plate at 20 μl per well using a uFlow dispenser, giving a final volume of 40 μL/well, each with 2000 infected cells. The plates were then incubated for 5 days at 37° C. and 5% CO2. Following incubation, the plates were equilibrated to room temperature in a biosafety cabinet hood for 1.5 hrs and 40 μL of Cell-Titer Glo viability reagent (Promega) was added to each well via uFlow. Following a10-20 minute incubation, the plates were read using an EnVision or Victor Luminescence plate reader (Perkin-Elmer). The data was then uploaded and analyzed on the Bioinformatics portal under the RSV Cell Infectivity and 8-plate EC50-Hep2-384 or 8-plate EC50-Hep2-Envision protocols. […]
What is called inhibition is the relative decrease from the control value, in per cent. Consider `Cc1cn2nc([C@@H]3CCCCN3C(=O)c3cc(Cl)ccc3NS(C)(=O)=O)cc2nc1NCC(C)N` (stereo partly drawn) [Compound 1], for which the inhibition at 0.5 µM was 100%.

Take `Cc1cn2nc([C@@H]3CCCCN3C(=O)c3cc(Cl)ccc3NS(C)(=O)=O)cc2nc1NCC1(N)CC1` [Compound 2]: the inhibition at 0.5 µM was 100%.

Take `Cc1cn2nc([C@@H]3CCCCN3C(=O)c3cc(Cl)ccc3NS(C)(=O)=O)cc2nc1NCC(N)c1ccccc1` (stereo partly drawn) [Compound 3]: the inhibition at 0.5 µM was 100%.

Regarding `Cc1cn2nc([C@@H]3CCCCN3C(=O)c3cc(Cl)ccc3NS(C)(=O)=O)cc2nc1N1C[C@@H](N)[C@H](c2ccccc2)C1` [Compound 4], the inhibition at 0.5 µM is 100%.

Consider `Cc1cn2nc([C@@H]3CCCCN3C(=O)c3cc(Cl)ccc3NS(C)(=O)=O)cc2nc1NC(C)CN` (stereo partly drawn) [Compound 5], for which the inhibition at 0.5 µM is 100%.

Regarding `Cc1cn2nc([C@@H]3CCCCN3C(=O)c3cc(Cl)ccc3NS(C)(=O)=O)cc2nc1N[C@H]1C[C@@H](N)C1` [Compound 6], the inhibition at 0.5 µM was 100%.

`Cc1cn2nc([C@@H]3CCCCN3C(=O)c3cc(Cl)ccc3NS(C)(=O)=O)cc2nc1N1CCN[C@@H](C)C1` [Compound 7]: the inhibition at 0.5 µM was 100%.

In the case of `Cc1cn2nc([C@@H]3CCCCN3C(=O)c3cc(Cl)ccc3NS(C)(=O)=O)cc2nc1NC(CN)c1ccccc1` (stereo partly drawn) [Compound 8], the inhibition at 0.5 µM was 90%.

For `COC(=O)[C@H]1C[C@H](N)CN1c1nc2cc([C@@H]3CCCCN3C(=O)c3cc(Cl)ccc3NS(C)(=O)=O)nn2cc1C` [Compound 9], the inhibition at 0.5 µM was 99%.

In the case of `CN[C@@H]1CCN(c2nc3cc([C@@H]4CCCCN4C(=O)c4cc(Cl)ccc4NS(C)(=O)=O)nn3cc2C)C1` [Compound 10], the inhibition at 0.5 µM was 95%.

`CN[C@H]1CCN(c2nc3cc([C@@H]4CCCCN4C(=O)c4cc(Cl)ccc4NS(C)(=O)=O)nn3cc2C)C1` [Compound 11]: the inhibition at 0.5 µM was 92%.

Take `COC(=O)[C@H]1C[C@@H](N)CN1c1nc2cc([C@@H]3CCCCN3C(=O)c3cc(Cl)ccc3NS(C)(=O)=O)nn2cc1C` [Compound 12]: the inhibition at 0.5 µM is 89%.

As to `Cc1cn2nc([C@@H]3CCCCN3C(=O)c3cc(Cl)ccc3NS(C)(=O)=O)cc2nc1N1CCN[C@@H](COCc2ccccc2)C1` [Compound 13], the inhibition at 0.5 µM is 82%.

Turning to `Cc1cn2nc([C@@H]3CCCCN3C(=O)c3cc(Cl)ccc3NS(C)(=O)=O)cc2nc1N1C[C@H](N)C[C@@H]1C(=O)O` [Compound 14], the inhibition at 0.5 µM is 81%.

For the molecule `Cc1cn2nc([C@@H]3CCCCN3C(=O)c3cc(Cl)ccc3NS(C)(=O)=O)cc2nc1NCC1CCCNC1` (stereo partly drawn) [Compound 15], the inhibition at 0.5 µM is 82%.

As for `Cc1cn2nc([C@@H]3CCCCN3C(=O)c3cc(Cl)ccc3NS(C)(=O)=O)cc2nc1N1C[C@@H]2CCN[C@@H]2C1` [Compound 16], the inhibition at 0.5 µM is 71%.

Turning to `Cc1cn2nc([C@@H]3CCCCN3C(=O)c3cc(Cl)ccc3NS(C)(=O)=O)cc2nc1N1CCN[C@H](Cc2ccccc2)C1` [Compound 17], the inhibition at 0.5 µM was 70%.

As for `Cc1cn2nc([C@@H]3CCCCN3C(=O)c3cc(Cl)ccc3NS(C)(=O)=O)cc2nc1N1C[C@@H]2C[C@H]1CN2` [Compound 18], the inhibition at 0.5 µM was 70%.

Turning to `Cc1cn2nc([C@@H]3CCCCN3C(=O)c3cc(Cl)ccc3NS(C)(=O)=O)cc2nc1N1C[C@@H](N)C[C@@H]1C(=O)O` [Compound 19], the inhibition at 0.5 µM was 70%.

Regarding `Cc1cn2nc([C@@H]3CCCCN3C(=O)c3cc(Cl)ccc3NS(C)(=O)=O)cc2nc1N1CC(C)NC(C)C1` (stereo partly drawn) [Compound 20], the inhibition at 0.5 µM was 63%.

For the molecule `Cc1cn2nc([C@@H]3CCCCN3C(=O)c3cc(Cl)ccc3NS(C)(=O)=O)cc2nc1N[C@H]1C[C@H]2C[C@@H]1CN2` [Compound 21], the inhibition at 0.5 µM is 58%.

With `Cc1cn2nc([C@@H]3CCCCN3C(=O)c3cc(Cl)ccc3NS(C)(=O)=O)cc2nc1N1CCN[C@@H](C(C)C)C1` [Compound 22], the inhibition at 0.5 µM is 55%.

As to `CNC(=O)[C@H]1CN(c2nc3cc([C@@H]4CCCCN4C(=O)c4cc(Cl)ccc4NS(C)(=O)=O)nn3cc2C)CCN1` [Compound 23], the inhibition at 0.5 µM was 48%.

Consider `Cc1cn2nc([C@@H]3CCCCN3C(=O)c3cc(Cl)ccc3NS(C)(=O)=O)cc2nc1N1C[C@H](C)NC[C@H]1C` [Compound 24], for which the inhibition at 0.5 µM was 30%.

Consider `Cc1cn2nc([C@@H]3CCCCN3C(=O)c3cccc(F)c3C)cc2nc1N1CC[C@H](N)C1` [Compound 25], for which the inhibition at 0.5 µM is 100%.

Turning to `Cc1cn2nc([C@@H]3CCCCN3C(=O)c3ccc(F)cn3)cc2nc1N1CC[C@H](N)C1` [Compound 26], the inhibition at 0.5 µM is 84%.

For the molecule `COc1ccccc1C(=O)N1CCCC[C@H]1c1cc2nc(N3CC[C@H](N)C3)c(C)cn2n1` [Compound 27], the inhibition at 0.5 µM was 100%.

Regarding `Cc1cn2nc([C@@H]3CCCCN3C(=O)c3cc(F)c(F)c(Cl)c3F)cc2nc1N1CC[C@H](N)C1` [Compound 28], the inhibition at 0.5 µM was 100%.

Regarding `COc1ccc(S(N)(=O)=O)cc1C(=O)N1CCCC[C@H]1c1cc2nc(N3CC[C@H](N)C3)c(C)cn2n1` [Compound 29], the inhibition at 0.5 µM was 71%.

On to `Cc1cn2nc([C@@H]3CCCCN3C(=O)c3cccc(F)c3Cl)cc2nc1N1CC[C@H](N)C1` [Compound 30], for which the inhibition at 0.5 µM is 100%.

Regarding `Cc1cn2nc([C@@H]3CCCCN3C(=O)c3cccc4c3CCCC4)cc2nc1N1CC[C@H](N)C1` [Compound 31], the inhibition at 0.5 µM was 100%.

As to `Cc1cn2nc([C@@H]3CCCCN3C(=O)c3ccc(C#N)cc3F)cc2nc1N1CC[C@H](N)C1` [Compound 32], the inhibition at 0.5 µM was 79%.

In the case of `Cc1cn2nc([C@@H]3CCCCN3C(=O)c3ccc(C)c(F)c3F)cc2nc1N1CC[C@H](N)C1` [Compound 33], the inhibition at 0.5 µM is 99%.

Consider `COc1ccc(C(C)(C)C)cc1C(=O)N1CCCC[C@H]1c1cc2nc(N3CC[C@H](N)C3)c(C)cn2n1` [Compound 34], for which the inhibition at 0.5 µM was 13%.

Turning to `Cc1ccc(C(F)(F)F)c(C(=O)N2CCCC[C@H]2c2cc3nc(N4CC[C@H](N)C4)c(C)cn3n2)c1` [Compound 35], the inhibition at 0.5 µM is 100%.

With `Cc1ccc(C(=O)N2CCCC[C@H]2c2cc3nc(N4CC[C@H](N)C4)c(C)cn3n2)c(C(F)(F)F)c1` [Compound 36], the inhibition at 0.5 µM was 98%.

In the case of `Cc1cn2nc([C@@H]3CCCCN3C(=O)c3cc(F)ccc3OC(F)(F)F)cc2nc1N1CC[C@H](N)C1` [Compound 37], the inhibition at 0.5 µM was 100%.

On to `Cc1cn2nc([C@@H]3CCCCN3C(=O)c3cccc4cn[nH]c34)cc2nc1N1CC[C@H](N)C1` [Compound 38], for which the inhibition at 0.5 µM was 100%.

For `Cc1cn2nc([C@@H]3CCCCN3C(=O)c3c(F)ccc(C)c3F)cc2nc1N1CC[C@H](N)C1` [Compound 39], the inhibition at 0.5 µM was 100%.

In the case of `Cc1cn2nc([C@@H]3CCCCN3C(=O)c3ccc4cnccc4n3)cc2nc1N1CC[C@H](N)C1` [Compound 41], the inhibition at 0.5 µM was 4%.

In the case of `Cc1cn2nc([C@@H]3CCCCN3C(=O)c3ccc(-c4ccccc4)cn3)cc2nc1N1CC[C@H](N)C1` [Compound 42], the inhibition at 0.5 µM is 9%.

As for `Cc1cn2nc([C@@H]3CCCCN3C(=O)c3cccc4[nH]cnc34)cc2nc1N1CC[C@H](N)C1` [Compound 43], the inhibition at 0.5 µM is 88%.

On to `Cc1cn2nc([C@@H]3CCCCN3C(=O)c3cccc(F)c3C(F)(F)F)cc2nc1N1CC[C@H](N)C1` [Compound 44], for which the inhibition at 0.5 µM is 100%.

Regarding `Cc1cn2nc([C@@H]3CCCCN3C(=O)c3ccccc3S(N)(=O)=O)cc2nc1N1CC[C@H](N)C1` [Compound 45], the inhibition at 0.5 µM was 45%.

For `Cc1cn2nc([C@@H]3CCCCN3C(=O)c3cccc4ccncc34)cc2nc1N1CC[C@H](N)C1` [Compound 46], the inhibition at 0.5 µM is 100%.
